Assays:
morphine analgesia = assay: Increase in analgesia of morphine, Tail Flick Test (Experiment 1); assay type: in vivo, rats; settings: for percentage variation of latency of pain sensation / M (10-90) ± SE, mean percentage variation of latency: compound 10 mg/kg i.p. + morphine 2 mg/kg; for M (10-90) ± SE, mean percentage variation of latency: mean 10-90 min; for Power ratio with respect to morphine alone: rat, in vivo
How it was run: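 Tail-flick latency to 75 °C radiant heat, capped at 8 s, measured in male non-fasted rats weighing 150-200 g. Percentage change per animal derived from pre-treatment baseline versus post-drug readings at 10-90 min (10, 20, 30, 45, 60, 90 min).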

[1] = system: activity of analgesic drugs; assay: Hot-plate test, potentiation of analgesic drugs (Experiment 2); assay type: in vivo, rats
Experimental: Experiment No. 2: Hot-plate test
The method is that described by Eddy et al. (J. Pharmac. Exp. Ther. 107, 385 (1953)).
Groups of five male rats having a weight of about 150 g, and which have not fasted, are used.
The animals are placed on a metal plate on the bottom of a transparent cylinder, which is heated to 55°±1° C. by an azeotropic boiling mixture (acetone-ethyl formate 1:1).
The reaction time is defined as the interval which passes between the moment at which the animal is placed on the hot-plate and the moment at which it either licks its feet or tries to jump out of the cylinder. The control reaction time is measured 10 and 5 minutes before administration of the drugs and 10, 20, 30, 45, 60 and 90 minutes afterwards. The animals are left on the plate for a maximum period of 30 seconds.
The response to the administration of the product is considered positive if at least a doubling of the normal reaction time is seen. The results obtained are given in Tables 2a and 2b which record the groups treated, the doses administered and the stay times on the plate expressed as the number of positive responses over the number treated.

[2] = system: enkephalinamide (DALA) analgesia; assay: Potentiation of DALA (enkephalinamide) analgesia, i.c.v., Tail Flick Test (Experiment 4); assay type: in vivo, rats; design: scale not given here
Description: Experiment No. 4: Potentiation of the analgesic activities of enkephalins induced by some of the compounds of the invention. […]

[3] = system: intestinal transit of carbon; assay: Anti-spastic activity, vegetable carbon intestinal transit test; assay type: in vivo, mice; settings: Mus musculus, ip; read-out: antispastic activity ED50 (dose reducing intestinal transit of carbon by 50%)
Description: The anti-spastic activity which the present compounds exert on the entire digestive system is also notable. Measured in mice with the vegetable carbon test (rate of transit through the stomach and the intestine), this activity is illustrated in the following table.
claimed administered intraperitoneally in mice. Values
expressed as the ED 50 in mg/kg, that is the dose which
reduces the intestinal transit of carbon by 50%

[4] = DALA 10 + compound 0.003 μg/kg ICV, 10'
[5] = DALA 10 + compound 0.003 μg/kg ICV, 20'
[6] = DALA 10 + compound 0.003 μg/kg ICV, 30'
[7] = DALA 10 + compound 0.003 μg/kg ICV, 45'
[8] = DALA 10 + compound 0.003 μg/kg ICV, 60'
[9] = DALA 10 + compound 0.003 μg/kg ICV, 90'
[10] = DALA 10 + compound 0.003 μg/kg ICV
[11] = DALA 10 + compound 0.01 μg/kg ICV, 10'
[12] = DALA 10 + compound 0.01 μg/kg ICV, 20'
[13] = DALA 10 + compound 0.01 μg/kg ICV, 30'
[14] = DALA 10 + compound 0.01 μg/kg ICV, 45'
[15] = DALA 10 + compound 0.01 μg/kg ICV, 60'
[16] = DALA 10 + compound 0.01 μg/kg ICV, 90'
[17] = DALA 10 + compound 0.01 μg/kg ICV

CCCN(CCC)C(=O)C(CCC(=O)O)NC(=O)c1cccc(C#N)c1 (stereo not drawn) [Compound C-20]
percentage variation of latency of pain sensation (morphine analgesia; 10'): 53.8%
percentage variation of latency of pain sensation (morphine analgesia; 20'): 85.7 ± 10.0%
percentage variation of latency of pain sensation (morphine analgesia; 30'): 92.0 ± 8.0%
percentage variation of latency of pain sensation (morphine analgesia; 45'): 99.1 ± 1.0%
percentage variation of latency of pain sensation (morphine analgesia; 60'): 91.2 ± 9.0%
percentage variation of latency of pain sensation (morphine analgesia; 90'): 51.2%
M (10-90) ± SE, mean percentage variation of latency (morphine analgesia): 78.8 ± 21.0%
Power ratio with respect to morphine alone (morphine analgesia): 2.64
TOTAL positives ([1]; ASA 100 + compound 5 mg/kg i.p.): 12 x/30
positive responses over number treated ([1]; ASA 100 + compound 5 mg/kg i.p., 10'): 2/5
positive responses over number treated ([1]; ASA 100 + compound 5 mg/kg i.p., 20'): 2/5
positive responses over number treated ([1]; ASA 100 + compound 5 mg/kg i.p., 30'): 2/5
positive responses over number treated ([1]; ASA 100 + compound 5 mg/kg i.p., 45'): 3/5
positive responses over number treated ([1]; ASA 100 + compound 5 mg/kg i.p., 60'): 3/5
positive responses over number treated ([1]; ASA 100 + compound 5 mg/kg i.p., 90'): 0/5
TOTAL positives ([1]; ASA 100 + compound 20 mg/kg i.p.): 17 x/30
positive responses over number treated ([1]; ASA 100 + compound 20 mg/kg i.p., 10'): 1/5
positive responses over number treated ([1]; ASA 100 + compound 20 mg/kg i.p., 20'): 3/5
positive responses over number treated ([1]; ASA 100 + compound 20 mg/kg i.p., 30'): 3/5
positive responses over number treated ([1]; ASA 100 + compound 20 mg/kg i.p., 45'): 3/5
positive responses over number treated ([1]; ASA 100 + compound 20 mg/kg i.p., 60'): 4/5
positive responses over number treated ([1]; ASA 100 + compound 20 mg/kg i.p., 90'): 3/5
TOTAL positives ([1]; ASA 100 + compound 50 mg/kg i.p.): 22 x/30
positive responses over number treated ([1]; ASA 100 + compound 50 mg/kg i.p., 10'): 3/5
positive responses over number treated ([1]; ASA 100 + compound 50 mg/kg i.p., 20'): 2/5
positive responses over number treated ([1]; ASA 100 + compound 50 mg/kg i.p., 30'): 5/5
positive responses over number treated ([1]; ASA 100 + compound 50 mg/kg i.p., 45'): 5/5
positive responses over number treated ([1]; ASA 100 + compound 50 mg/kg i.p., 60'): 4/5
positive responses over number treated ([1]; ASA 100 + compound 50 mg/kg i.p., 90'): 3/5
effect on analgesic activity of propoxyphene ([1]; compound 3 mg/kg i.p.): can double the analgesic activity of propoxyphene
TOTAL positives ([1]; propoxyphene 15 + compound 1 mg/kg i.p.): 16 x/30
positive responses over number treated ([1]; propoxyphene 15 + compound 1 mg/kg i.p., 10'): 2/5
positive responses over number treated ([1]; propoxyphene 15 + compound 1 mg/kg i.p., 20'): 2/5
positive responses over number treated ([1]; propoxyphene 15 + compound 1 mg/kg i.p., 30'): 3/5
positive responses over number treated ([1]; propoxyphene 15 + compound 1 mg/kg i.p., 45'): 3/5
positive responses over number treated ([1]; propoxyphene 15 + compound 1 mg/kg i.p., 60'): 3/5
positive responses over number treated ([1]; propoxyphene 15 + compound 1 mg/kg i.p., 90'): 3/5
TOTAL positives ([1]; propoxyphene 15 + compound 3 mg/kg i.p.): 25 x/30
positive responses over number treated ([1]; propoxyphene 15 + compound 3 mg/kg i.p., 10'): 3/5
positive responses over number treated ([1]; propoxyphene 15 + compound 3 mg/kg i.p., 20'): 5/5
positive responses over number treated ([1]; propoxyphene 15 + compound 3 mg/kg i.p., 30'): 4/5
positive responses over number treated ([1]; propoxyphene 15 + compound 3 mg/kg i.p., 45'): 5/5
positive responses over number treated ([1]; propoxyphene 15 + compound 3 mg/kg i.p., 60'): 4/5
positive responses over number treated ([1]; propoxyphene 15 + compound 3 mg/kg i.p., 90'): 4/5
TOTAL positives ([1]; propoxyphene 15 + compound 10 mg/kg i.p.): 27 x/30
positive responses over number treated ([1]; propoxyphene 15 + compound 10 mg/kg i.p., 10'): 4/5
positive responses over number treated ([1]; propoxyphene 15 + compound 10 mg/kg i.p., 20'): 5/5
positive responses over number treated ([1]; propoxyphene 15 + compound 10 mg/kg i.p., 30'): 5/5
positive responses over number treated ([1]; propoxyphene 15 + compound 10 mg/kg i.p., 45'): 5/5
positive responses over number treated ([1]; propoxyphene 15 + compound 10 mg/kg i.p., 60'): 5/5
positive responses over number treated ([1]; propoxyphene 15 + compound 10 mg/kg i.p., 90'): 3/5
dose of maximum effect (propoxyphene potentiation) ([1]; with propoxyphene): 10 mg/kg i.p.
analgesic activity, Tail Flick [2, 4]: 5.7
analgesic activity, Tail Flick [2, 5]: 44.6
analgesic activity, Tail Flick [2, 6]: 32.3
analgesic activity, Tail Flick [2, 7]: 30.1
analgesic activity, Tail Flick [2, 8]: 24.5
analgesic activity, Tail Flick [2, 9]: 72.
MEAN analgesic activity, Tail Flick [2, 10]: 24.1
analgesic activity, Tail Flick [2, 11]: 16.5
analgesic activity, Tail Flick [2, 12]: 62.5
analgesic activity, Tail Flick [2, 13]: 64.1
analgesic activity, Tail Flick [2, 14]: 45.4
analgesic activity, Tail Flick [2, 15]: 45.3
analgesic activity, Tail Flick [2, 16]: 16.3
MEAN analgesic activity, Tail Flick [2, 17]: 41.7
ED50 [3]: 77.5 mg/kg

CCCCN(CCCC)C(=O)CCC(NC(=O)c1ccc(Cl)c(Cl)c1)C(=O)O [Compound D-2]
percentage variation of latency of pain sensation (morphine analgesia; 10'): 85.6 ± 14.0%
percentage variation of latency of pain sensation (morphine analgesia; 20'): 98.1 ± 2.0%
percentage variation of latency of pain sensation (morphine analgesia; 30'): 95.9 ± 4.0%
percentage variation of latency of pain sensation (morphine analgesia; 45'): 96.6 ± 3.0%
percentage variation of latency of pain sensation (morphine analgesia; 60'): 95.5 ± 3.0%
percentage variation of latency of pain sensation (morphine analgesia; 90'): 87.5 ± 6.0%
M (10-90) ± SE, mean percentage variation of latency (morphine analgesia): 93.2 ± 5.3%
Power ratio with respect to morphine alone (morphine analgesia): 3.12
TOTAL positives ([1]; oxyphenylbutazone 50 + compound 3 mg/kg i.p.): 12 x/30
positive responses over number treated ([1]; oxyphenylbutazone 50 + compound 3 mg/kg i.p., 10'): 2/5
positive responses over number treated ([1]; oxyphenylbutazone 50 + compound 3 mg/kg i.p., 20'): 1/5
positive responses over number treated ([1]; oxyphenylbutazone 50 + compound 3 mg/kg i.p., 30'): 2/5
positive responses over number treated ([1]; oxyphenylbutazone 50 + compound 3 mg/kg i.p., 45'): 3/5
positive responses over number treated ([1]; oxyphenylbutazone 50 + compound 3 mg/kg i.p., 60'): 3/5
positive responses over number treated ([1]; oxyphenylbutazone 50 + compound 3 mg/kg i.p., 90'): 1/5
TOTAL positives ([1]; oxyphenylbutazone 50 + compound 10 mg/kg i.p.): 12 x/30
positive responses over number treated ([1]; oxyphenylbutazone 50 + compound 10 mg/kg i.p., 10'): 1/5
positive responses over number treated ([1]; oxyphenylbutazone 50 + compound 10 mg/kg i.p., 20'): 1/5
positive responses over number treated ([1]; oxyphenylbutazone 50 + compound 10 mg/kg i.p., 30'): 3/5
positive responses over number treated ([1]; oxyphenylbutazone 50 + compound 10 mg/kg i.p., 45'): 3/5
positive responses over number treated ([1]; oxyphenylbutazone 50 + compound 10 mg/kg i.p., 60'): 2/5
positive responses over number treated ([1]; oxyphenylbutazone 50 + compound 10 mg/kg i.p., 90'): 2/5
TOTAL positives ([1]; oxyphenylbutazone 50 + compound 30 mg/kg i.p.): 23 x/30
positive responses over number treated ([1]; oxyphenylbutazone 50 + compound 30 mg/kg i.p., 10'): 3/5
positive responses over number treated ([1]; oxyphenylbutazone 50 + compound 30 mg/kg i.p., 20'): 4/5
positive responses over number treated ([1]; oxyphenylbutazone 50 + compound 30 mg/kg i.p., 30'): 4/5
positive responses over number treated ([1]; oxyphenylbutazone 50 + compound 30 mg/kg i.p., 45'): 4/5
positive responses over number treated ([1]; oxyphenylbutazone 50 + compound 30 mg/kg i.p., 60'): 4/5
positive responses over number treated ([1]; oxyphenylbutazone 50 + compound 30 mg/kg i.p., 90'): 4/5
analgesic activity, Tail Flick [2, 4]: 34.9
analgesic activity, Tail Flick [2, 5]: 54.0
analgesic activity, Tail Flick [2, 6]: 45.5
analgesic activity, Tail Flick [2, 7]: 27.5
analgesic activity, Tail Flick [2, 8]: 23.5
analgesic activity, Tail Flick [2, 9]: 14.9
MEAN analgesic activity, Tail Flick [2, 10]: 33.4
analgesic activity, Tail Flick [2, 11]: 38.2
analgesic activity, Tail Flick [2, 12]: 53.7
analgesic activity, Tail Flick [2, 13]: 52.6
analgesic activity, Tail Flick [2, 14]: 38.5
analgesic activity, Tail Flick [2, 15]: 33.7
analgesic activity, Tail Flick [2, 16]: 26.3
MEAN analgesic activity, Tail Flick [2, 17]: 40.5
ED50 [3]: 50.7 mg/kg

From patent US4791215A, “Derivatives of glutamic acid and aspartic acid” (priority 1984, dated 1988)
